Measurements taken from patent publication US10266537B2, “3-acetylenyl-pyrazole-pyrimidine derivative, and preparation method therefor and uses thereof” (Si Chuan University, priority 2015, dated 2019).
Where two headings read alike, the source gives them in different places.

Key:
MDA-MB-231 = assay: Cell proliferation inhibition assay (MTT); type: cell-based, human; details: Homo sapiens, read-out: Proliferative inhibitory activity MDA-MB-231 (IC50 class)
MDA-MB-435 = assay: Cell proliferation inhibition assay (MTT); type: cell-based, human; details: Homo sapiens, read-out: Proliferative inhibitory activity MDA-MB-435 (IC50 class)
c-Src(1-530) = c-Src(1-530) (Homo sapiens (Human), UniProt P12931); assay: Kinase inhibition assay (KinaseProfiler, 33P-ATP); details: c-Src(1-530); ATP at Km
c-Src(1-530), sequence (P12931 whole entry, looked up): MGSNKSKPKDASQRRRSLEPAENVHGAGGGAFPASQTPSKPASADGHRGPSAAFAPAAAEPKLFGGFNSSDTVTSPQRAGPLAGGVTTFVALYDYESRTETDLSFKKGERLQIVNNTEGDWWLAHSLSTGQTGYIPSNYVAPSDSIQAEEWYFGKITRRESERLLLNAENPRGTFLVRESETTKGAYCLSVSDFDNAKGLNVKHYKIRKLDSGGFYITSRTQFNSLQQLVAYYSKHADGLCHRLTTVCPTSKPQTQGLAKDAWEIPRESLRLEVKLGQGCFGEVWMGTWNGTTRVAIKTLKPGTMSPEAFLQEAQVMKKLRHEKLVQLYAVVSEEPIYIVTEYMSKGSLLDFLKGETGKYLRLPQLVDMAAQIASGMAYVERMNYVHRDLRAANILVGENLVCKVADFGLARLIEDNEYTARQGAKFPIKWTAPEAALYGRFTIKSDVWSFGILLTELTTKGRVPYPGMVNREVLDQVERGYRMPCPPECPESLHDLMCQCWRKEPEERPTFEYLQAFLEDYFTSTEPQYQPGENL

IC50 (MDA-MB-231; MDA-MB-231, MTT, 72 hours) [nM]	IC50 (MDA-MB-435; MDA-MB-435, MTT, 72 hours) [nM]	IC50 (c-Src(1-530)) [nM]	Structure (SMILES)	IC50 (MDA-MB-231; MDA-MB-231, 72 h) [nM]	IC50 (MDA-MB-435; MDA-MB-435, 72 h) [nM]
100 to 500	100 to 500		Cc1ccc(NC(=O)c2ccnc(C(F)(F)F)c2)cc1C#Cc1nn(C2CCN(C)CC2)c2ncnc(N)c12 [Compound 59]		
100 to 500	100 to 500		Cc1ccc(NC(=O)c2nc(C(C)(C)C)cs2)cc1C#Cc1nn(CC2CCN(C)C2)c2ncnc(N)c12 (stereo not drawn) [Compound 94]		
100 to 500	< 100		Cc1ccc(NC(=O)c2cc(C(C)(C)C)on2)cc1C#Cc1nn(C2CCN(C)CC2)c2ncnc(N)c12 [Compound 64]		
< 100	100 to 500		Cc1ccc(C(=O)Nc2cccc(C(F)(F)F)c2)cc1C#Cc1nn(C2CCN(C)CC2)c2ncnc(N)c12 [Compound 32]		
< 100	< 100		Cc1ccc(NC(=O)c2ccc(Cl)c(C(F)(F)F)c2)cc1C#Cc1nn(C2CCN(C)CC2)c2ncnc(N)c12 [Compound 67]		
100 to 500	< 100		Cc1ccc(NC(=O)c2cc(C(C)(C)C)nn2C)cc1C#Cc1nn(C2CCN(C)CC2)c2ncnc(N)c12 [Compound 63]		
> 1000	> 1000		COc1ccc(C(=O)Nc2ccc(C)c(C#Cc3nn(C4CCN(C)CC4)c4ncnc(N)c34)c2)cc1 [Compound 43]		
500 to 1000	< 100		Cc1ccc(NC(=O)Nc2cccc(C(F)(F)F)c2)cc1C#Cc1nn(C2CCN(C)CC2)c2ncnc(N)c12 [Compound 35]		
< 100	< 100		Cc1ccc(NC(=O)c2nc(C(C)(C)C)cs2)cc1C#Cc1nn(C2CCN(C)CC2)c2ncnc(N)c12 [Compound 65]		
100 to 500	100 to 500		Cc1ccc(NC(=O)c2nc(C(C)(C)C)cs2)cc1C#Cc1nn(CC2CCN(C)CC2)c2ncnc(N)c12 [Compound 96]		
< 100	> 1000		Cc1ccc(NC(=O)c2ccc(Cl)c(C(F)(F)F)c2)cc1C#Cc1nn([C@@H]2CCN(C)C2)c2ncnc(N)c12 [Compound 85]		
< 100	< 100		Cc1ccc(NC(=O)c2cccc(C(C)(C)C)c2)cc1C#Cc1nn([C@H]2CC[C@H](O)CC2)c2ncnc(N)c12 [Compound 118]		
< 100	100 to 500		Cc1ccc(NC(=O)c2ccc(Cl)cc2)cc1C#Cc1nn(C2CCN(C)CC2)c2ncnc(N)c12 [Compound 53]		
< 100	< 100		Cc1ccc(NC(=O)c2ccc(C)c(C(F)(F)F)c2)cc1C#Cc1nn(C2CCN(C)CC2)c2ncnc(N)c12 [Compound 42]		
< 100	500 to 1000		Cc1ccc(NC(=O)c2cccc(Cl)c2)cc1C#Cc1nn(C2CCN(C)CC2)c2ncnc(N)c12 [Compound 49]		
< 100	< 100		Cc1ccc(NC(=O)c2cc(Cl)cc(C(F)(F)F)c2)cc1C#Cc1nn(C2CCN(C)CC2)c2ncnc(N)c12 [Compound 66]		

Second part, the molecule before the results:

Structure (SMILES)	IC50 (MDA-MB-231; MDA-MB-231, MTT, 72 hours) [nM]	IC50 (MDA-MB-435; MDA-MB-435, MTT, 72 hours) [nM]	IC50 (c-Src(1-530)) [nM]	IC50 (MDA-MB-231; MDA-MB-231, 72 h) [nM]	IC50 (MDA-MB-435; MDA-MB-435, 72 h) [nM]
CCn1nc(C#Cc2cc(C(=O)Nc3ccc(CN4CCN(C)CC4)c(C(F)(F)F)c3)ccc2Cl)c2c(N)ncnc21 [Compound 26]	< 100	< 100	11		
CC(C)n1nc(C#Cc2cccc(C(=O)Nc3ccc(CN4CCN(C)CC4)c(C(F)(F)F)c3)c2)c2c(N)ncnc21 [Compound 11]	500 to 1000	< 100	10		
Cc1ccc(C(=O)Nc2ccc(CN3CCN(C)CC3)cc2)cc1C#Cc1nn(C(C)C)c2ncnc(N)c12 [Compound 17]	100 to 500	> 1000	4		
Cc1ccc(C(=O)Nc2cc(CN3CCN(C)CC3)cc(C(F)(F)F)c2)cc1C#Cc1nn(C(C)C)c2ncnc(N)c12 [Compound 13]	< 100	100 to 500	11		
Cc1ccc(NC(=O)c2ccc(Cl)c(C(F)(F)F)c2)cc1C#Cc1nn([C@@H]2CCCN(C(=O)[C@@H](C)O)C2)c2ncnc(N)c12 [Compound 88]	< 100	100 to 500			
Cc1ccc(NC(=O)c2ccc(Cl)c(C(F)(F)F)c2)cc1C#Cc1nn(CC2CCN(C)C2)c2ncnc(N)c12 (stereo not drawn) [Compound 69]	< 100	> 1000			
Cc1ccc(NC(=O)c2ccc(Cl)c(C(F)(F)F)c2)cc1C#Cc1nn([C@@H]2CCN(C(=O)[C@@H](C)O)C2)c2ncnc(N)c12 [Compound 73]	< 100	> 1000			
Cc1ccc(NC(=O)c2ccc(Cl)c(C(F)(F)F)c2)cc1C#Cc1nn(C2CCN(C(=O)[C@@H](C)O)CC2)c2ncnc(N)c12 [Compound 71]	< 100	< 100			
Cc1ccc(NC(=O)c2ccc(Cl)c(C(F)(F)F)c2)cc1C#Cc1nn(CC(=O)N2CCOCC2)c2ncnc(N)c12 [Compound 80]	< 100	> 1000			
Cc1ccc(NC(=O)c2ccc(CN3CCN(C)CC3)cc2)cc1C#Cc1nn(C(C)C)c2ncnc(N)c12 [Compound 1]	100 to 500	100 to 500			
Cc1ccc(NC(=O)c2ccc(Cl)c(C(F)(F)F)c2)cc1C#Cc1nn(C2CCC2)c2ncnc(N)c12 [Compound 77]	500 to 1000	> 1000			
Cc1ccc(NC(=O)c2ccc(CN3CCN(C)CC3)c(C(F)(F)F)c2)cc1C#Cc1nn(C)c2ncnc(N)c12 [Compound 28]	< 100	< 100			
Cc1ccc(C(=O)Nc2ccc(CN3CCN(C)CC3)c(C(F)(F)F)c2)cc1C#Cc1nn([C@@H]2CCOC2)c2ncnc(N)c12 [Compound 20]				< 100	< 100
Cc1ccc(C(=O)Nc2cccc(C(F)(F)F)c2)cc1C#Cc1nn(C[C@H](C)CO)c2ncnc(N)c12 [Compound 106]	< 100	< 100			
Cc1ccc(NC(=O)c2ccc(C)c(C(F)(F)F)c2)cc1C#Cc1nn(CC2CCN(C)C2)c2ncnc(N)c12 (stereo not drawn) [Compound 98]	< 100	< 100			
Cc1ccc(NC(=O)c2ccc(Cl)c(C(F)(F)F)c2)cc1C#Cc1nn(C2CCCN(C)C2)c2ncnc(N)c12 (stereo not drawn) [Compound 92]	< 100	100 to 500			
Cc1ccc(NC(=O)c2ccc(Cl)c(C(F)(F)F)c2)cc1C#Cc1nn([C@@H]2CCN(S(C)(=O)=O)C2)c2ncnc(N)c12 [Compound 84]	< 100	100 to 500			
Cc1ccc(NC(=O)c2ccc(Cl)c(C(F)(F)F)c2)cc1C#Cc1nn([C@@H]2CCCN(C)C2)c2ncnc(N)c12 [Compound 89]	< 100	100 to 500			
Cc1ccc(NC(=O)c2ccc(Cl)c(C(F)(F)F)c2)cc1C#Cc1nn(C[C@@H](C)CO)c2ncnc(N)c12 [Compound 82]	< 100	100 to 500			
CN1CCC(n2nc(C#Cc3cc(C(=O)Nc4cccc(C(F)(F)F)c4)ccc3Cl)c3c(N)ncnc32)CC1 [Compound 38]	500 to 1000	100 to 500			
CN1CCC(n2nc(C#Cc3cc(NC(=O)Nc4cccc(C(F)(F)F)c4)ccc3Cl)c3c(N)ncnc32)CC1 [Compound 36]	500 to 1000	100 to 500			
Cc1ccc(NC(=O)c2ccc(C)c(C(F)(F)F)c2)cc1C#Cc1nn(C[C@H](C)CO)c2ncnc(N)c12 [Compound 110]	< 100	< 100			
CC(=O)Nc1ncnc2c1c(C#Cc1cc(C(=O)Nc3ccc(CN4CCN(C)CC4)c(C(F)(F)F)c3)ccc1C)nn2C(C)C [Compound 15]	100 to 500	100 to 500			
Cc1ccc(NC(=O)c2ccc(Cl)c(C(F)(F)F)c2)cc1C#Cc1nn(C2CCCN(C(=O)[C@H](C)O)C2)c2ncnc(N)c12 (stereo partly drawn) [Compound 86]	< 100	> 1000			
